In patent publication US20090264401A1, “SUBSTITUTED PYRIMIDIN-5-CARBOXAMIDES 281” (AstraZeneca AB, priority 2008, published 2009) one finds inhibition and IC50 data, which are given here for 31 molecules.

For orientation: inhibition means the change of the read-out against control, counted positive when it falls. What is called IC50 is the concentration at which inhibition is half-maximal.

For the experiment, the target named is T1, human 11βHSD1 enzyme (Homo sapiens, UniProt P28845).
T1 construct: baculovirus expressed N terminal 6-His tagged full length human 11βHSD1 enzyme; 6-His (N); made in house
The experiment is described as follows: 11βHSD1 cortisone to cortisol conversion, competitive HTRF assay. The experiment is classed as biochemical. The conditions noted are these: for inhibition at 30 µM: human 11-βHSD, test concentration of 30 μM of compound; for IC50: recombinant N terminal 6-His tagged full length human 11βHSD1, cortisone 160 nM, 25 minutes at 37° C. The protocol: The evaluation of compounds described herein was carried out using a baculovirus expressed N terminal 6-His tagged full length human 11βHSD1 enzyme(*1). The enzyme was purified from a detergent solubilised cell lysate, using a copper chelate column. Inhibitors of 11βHSD1 reduce the conversion of cortisone to cortisol, which is identified by an increase in signal, in the above assay.
Compounds to be tested were dissolved in dimethyl sulphoxide (DMSO) to 10 mM and diluted further in assay buffer containing 1% DMSO to 10 fold the final assay concentration. Diluted compounds were then plated into black 384 well plates (Matrix, Hudson N.H., USA).
Fluorescence at 665 nm and 620 nm was measured and the 665 nm:620 nm ratio calculated using an Envision plate reader.
A general note: In TR-FRET formats the signal depends on donor and acceptor labels being close together.

T1 sequence (P28845 whole entry): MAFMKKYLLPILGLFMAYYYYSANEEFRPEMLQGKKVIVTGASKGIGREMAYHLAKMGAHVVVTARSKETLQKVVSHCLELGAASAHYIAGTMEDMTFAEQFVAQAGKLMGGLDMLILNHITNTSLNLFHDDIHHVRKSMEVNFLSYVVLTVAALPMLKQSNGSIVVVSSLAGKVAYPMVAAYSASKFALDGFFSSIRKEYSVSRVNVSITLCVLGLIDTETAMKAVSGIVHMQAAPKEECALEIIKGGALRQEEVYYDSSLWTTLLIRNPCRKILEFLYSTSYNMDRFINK

Take `O=C(N[C@H]1C2CC3CC1C[C@@](O)(C3)C2)c1cnc(NC2COC2)nc1[C@H]1CCCO1` [Example 173, N-[(2r,5s)-5-hydroxyadamantan-2-yl]-2-(oxetan-3-ylamino)-4-[(2R)-oxolan-2-yl]pyrimidine-5-carboxamide]: the inhibition at 30 µM was determined as 101%. On to `C[C@@H]1CN(c2ncc(C(=O)N[C@H]3C4CC5CC3C[C@](O)(C5)C4)c(C3CCCC3)n2)C[C@H](C)N1` [Example 134, 4-cyclopentyl-2-[(3S,5R)-3,5-dimethylpiperazin-1-yl]-N-[(2r,5s)-5-hydroxyadamantan-2-yl]pyrimidine-5-carboxamide], for which the inhibition at 30 µM was 94.1%. On the same count and under the same terms, the same measure for `CC(C)Nc1ncc(C(=O)N[C@H]2C3CC4CC2C[C@@](O)(C4)C3)c([C@H]2CCCO2)n1` [Example 171, N-[(2r,5s)-5-hydroxyadamantan-2-yl]-4-[(2R)-oxolan-2-yl]-2-(propan-2-ylamino)pyrimidine-5-carboxamide]: 103%. The same measure, in the same setting: the same measure for `Nc1ncc(C(=O)N[C@H]2C3CC4CC2C[C@@](O)(C4)C3)c(C2CCC2)n1` [Example 84, 2-Amino-4-cyclobutyl-N-[(2r,5s)-5-hydroxyadamantan-2-yl]pyrimidine-5-carboxamide]: 97.5%. Still for that read-out and setting: the value for `CSc1ncc(C(=O)N[C@H]2C3CC4CC2C[C@@](O)(C4)C3)c(C2CCCCC2)n1` [Example 195, 4-Cyclohexyl-N-[(2r,5 s)-5-hydroxyadamantan-2-yl]-2-(methylthio)pyrimidine-5-carboxamide] was 103%. For `CC(=O)N1CCN(c2ncc(C(=O)N[C@H]3C4CC5CC3C[C@@](O)(C5)C4)c(C3CCCC3)n2)CC1` [Example 126, 2-(4-acetylpiperazin-1-yl)-4-cyclopentyl-N-[(2r,5s)-5-hydroxyadamantan-2-yl]pyrimidine-5-carboxamide], the inhibition at 30 µM was determined as 96.6%. In the case of `O=C(N[C@H]1C2CC3CC1C[C@@](O)(C3)C2)c1cnc(N[C@@H]2CCOC2)nc1C1CCCC1` [Example 142, 4-cyclopentyl-N-[(2r,5s)-5-hydroxyadamantan-2-yl]-2-[[(3R)-oxolan-3-yl]amino]pyrimidine-5-carboxamide], the inhibition at 30 µM was 99.7%. On to `O=C(N[C@H]1C2CC3CC1C[C@@](O)(C3)C2)c1cnc(OC2CCC2)nc1C1CCC1` [Example 108, 4-cyclobutyl-2-(cyclobutyloxy)-N-[(2r,5s)-5-hydroxyadamantan-2-yl]pyrimidine-5-carboxamide], for which the inhibition at 30 µM was 96%. Same read-out and setting: the same measure for `C[C@@H]1CN(c2ncc(C(=O)N3CCC(c4cccnc4)C3)c(C3CC3)n2)C[C@H](C)O1` (stereo partly drawn) [Example 81, (4-cyclopropyl-2-((2S,6R)-2,6-dimethylmorpholino)pyrimidin-5-yl)(3-(pyridin-3-yl)pyrrolidin-1-yl)methanone]: 100%. The same measure, in the same setting: the value for `C[C@H]1COCCN1c1ncc(C(=O)N[C@H]2C3CC4CC2C[C@@](O)(C4)C3)c(C2CCCC2)n1` [Example 123] was 99.1%; that for `CNc1ncc(C(=O)N[C@H]2C3CC4CC2C[C@@](O)(C4)C3)c(C2CCCO2)n1` (stereo partly drawn) [Example 161, N-[(2r,5s)-5-hydroxyadamantan-2-yl]-2-methylamino-4-(oxolan-2-yl)pyrimidine-5-carboxamide] was 105%; that for `Cc1nc(N2CCOCC2)ncc1C(=O)NC1C2CC3CC(C2)CC1C3` (stereo not drawn) [Example 15, N-(2-adamantyl)-4-methyl-2-morpholin-4-ylpyrimidine-5-carboxamide] was 95.4%.

With `C[C@@H]1CN(c2ncc(C(=O)N[C@H]3C4CC5CC3C[C@@](O)(C5)C4)c(C3CCC3)n2)C[C@H](C)O1` [Example 92, 4-cyclobutyl-2-[(2R,6S)-2,6-dimethylmorpholin-4-yl]-N-[(2r,5s)-5-hydroxyadamantan-2-yl]pyrimidine-5-carboxamide], the inhibition at 30 µM came to 97.1%.

On to `C[C@@H]1CN(c2ncc(C(=O)N[C@H]3C4CC5CC3C[C@@](O)(C5)C4)c(C3CC3)n2)C[C@H](C)O1` [Example 42, 4-Cyclopropyl-2-(2,6-dimethylmorpholin-4-yl)-N-[(2r,5s)-5-hydroxyadamantan-2-yl]pyrimidine-5-carboxamide], for which the inhibition at 30 µM amounted to 99.4%. On the same count and under the same terms, the same measure for `O=C(N[C@H]1C2CC3CC1C[C@@](O)(C3)C2)c1cnc(NC2CCCC2)nc1C1CC1` [Example 57, 2-(cyclopentylamino)-4-cyclopropyl-N-[(2r,5s)-5-hydroxyadamantan-2-yl]pyrimidine-5-carboxamide]: 102%. On to `Cc1ncc(C(=O)NC2C3CC4CC(C3)CC2C4)c(C2CC2)n1` (stereo not drawn) [Example 12, N-(2-adamantyl)-4-cyclopropyl-2-methyl-pyrimidine-5-carboxamide], for which the inhibition at 30 µM is 97.3% and the IC50 came out at 45 nM.

With `CCCSc1nc(N2C[C@@H](C)O[C@@H](C)C2)ncc1C(=O)N[C@H]1C2CC3CC1C[C@@](O)(C3)C2` [Example 23, 2-[(2s,6r)-2,6-Dimethylmorpholin-4-yl]-N-[(2r,5s)-5-hydroxyadamantan-2-yl]-4-propylsulfanylpyrimidine-5-carboxamide], the inhibition at 30 µM was determined as 97.4%.

For `CNc1ncc(C(=O)N[C@H]2C3CC4CC2C[C@@](O)(C4)C3)c(C2CC2)n1` [Example 34, 4-Cyclopropyl-N-[(2r,5s)-5-hydroxyadamantan-2-yl]-2-methylaminopyrimidine-5-carboxamide], the inhibition at 30 µM was 98%. The same measure, in the same setting: the value for `CN1CCN(CCNc2ncc(C(=O)N[C@H]3C4CC5CC3C[C@@](O)(C5)C4)c(C3CC3)n2)CC1` [Example 74, 4-cyclopropyl-N-[(2r,5s)-5-hydroxyadamantan-2-yl]-2-{[2-(4-methylpiperazin-1-yl)ethyl]amino}pyrimidine-5-carboxamide] was 88.5%.

With `O=C(NC1C2CC3CC(C2)CC1C3)c1cnc(N2CCOCC2)nc1C1CC1` (stereo not drawn) [Example 13, N-(2-adamantyl)-4-cyclopropyl-2-morpholino-pyrimidine-5-carboxamide], the inhibition at 30 µM came out at 112% and the IC50 came out at 14 nM. Take `O=C(N[C@H]1C2CC3CC1C[C@@](O)(C3)C2)c1cnc(N2C[C@@H]3C[C@H]2CO3)nc1C1CC1` [Example 58, 4-cyclopropyl-N-[(2r,5s)-5-hydroxyadamantan-2-yl]-2-[(1S,4S)-2-oxa-5-azabicyclo[2.2.1]hept-5-yl]pyrimidine-5-carboxamide]: the inhibition at 30 µM is 99.6%. On the same count and under the same terms, the value for `C[C@@H]1CN(c2ncc(C(=O)N[C@H]3C4CC5CC3C[C@@](O)(C5)C4)c([C@H]3CCCO3)n2)C[C@H](C)N1` [Example 172, 2-[(3S,5R)-3,5-dimethylpiperazin-1-yl]-N-[(2r,5s)-5-hydroxyadamantan-2-yl]-4-[(2R)-oxolan-2-yl]pyrimidine-5-carboxamide] was 97.2%; that for `CCCSc1nc(N2CCN(S(C)(=O)=O)CC2)ncc1C(=O)NC1C2CC3CC(C2)CC1C3` (stereo not drawn) [Example 28, N-(2-adamantyl)-2-(4-methylsulfonylpiperazin-1-yl)-4-propylsulfanyl-pyrimidine-5-carboxamide] was 103%. As to `O=C(N[C@H]1C2CC3CC1C[C@@](O)(C3)C2)c1cnc(C2CC2)nc1C1CCCC1` [Example 149, 4-Cyclopentyl-2-cyclopropyl-N-[(2r,5s)-5-hydroxyadamantan-2-yl]pyrimidine-5-carboxamide], the inhibition at 30 µM was 92%. Regarding `C[C@@H]1CN(c2ncc(C(=O)N[C@H]3C4CC5CC3C[C@@](O)(C5)C4)c(C3CC3)n2)C[C@@H](C)O1` [Example 63, 4-cyclopropyl-2-[(2R,6R)-2,6-dimethylmorpholin-4-yl]-N-[(2r,5s)-5-hydroxyadamantan-2-yl]pyrimidine-5-carboxamide], the inhibition at 30 µM came out at 92.7%. As to `O=C(N[C@H]1C2CC3CC1C[C@@](O)(C3)C2)c1cnc(N2CCOCC2CO)nc1C1CCCC1` (stereo partly drawn) [Example 141, 4-cyclopentyl-N-[(2r,5s)-5-hydroxyadamantan-2-yl]-2-[3-(hydroxymethyl)morpholin-4-yl]pyrimidine-5-carboxamide], the inhibition at 30 µM is 105%.

Consider `O=C(N[C@H]1C2CC3CC1C[C@@](O)(C3)C2)c1cnc(N2CC[S+]([O-])CC2)nc1C1CC1` [Example 36, 4-Cyclopropyl-N-[(2r,5s)-5-hydroxyadamantan-2-yl]-2-(1-oxo-1,4-thiazinan-4-yl)pyrimidine-5-carboxamide], for which the inhibition at 30 µM was found to be 99.5%. For the molecule `CC(=O)N1CCN(c2ncc(C(=O)N3CCC(c4cccnc4)C3)c(C3CC3)n2)CC1` (stereo not drawn) [Example 80, 1-(4-(4-cyclopropyl-5-(3-(pyridin-3-yl)pyrrolidine-1-carbonyl)pyrimidin-2-yl)piperazin-1-yl)ethanone], the inhibition at 30 µM was 99.2%. The same measure, in the same setting: the same measure for `CC(C)(CO)Nc1ncc(C(=O)N[C@H]2C3CC4CC2C[C@@](O)(C4)C3)c(C2CCC2)n1` [Example 95, 4-cyclobutyl-N-[(2r,5s)-5-hydroxyadamantan-2-yl]-2-[(2-hydroxy-1,1-dimethylethyl)amino]pyrimidine-5-carboxamide]: 97.3%.

Turning to `O=C(N[C@H]1C2CC3CC1C[C@@](O)(C3)C2)c1cnc(N2CCS(=O)(=O)CC2)nc1C1CC1` [Example 37, 4-Cyclopropyl-2-(1,1-dioxo-1,4-thiazinan-4-yl)-N-[(2r,5s)-5-hydroxyadamantan-2-yl]pyrimidine-5-carboxamide], the inhibition at 30 µM was 93.5%.

Consider `O=C(N[C@H]1C2CC3CC1C[C@@](O)(C3)C2)c1cnc(NC2CC2)nc1C1CCC1` [Example 88, 4-cyclobutyl-2-(cyclopropylamino)-N-[(2r,5s)-5-hydroxyadamantan-2-yl]pyrimidine-5-carboxamide], for which the inhibition at 30 µM came to 94.9%.
